Data as given in ChEMBL document CHEMBL1201862, “PubChem BioAssay data set” (2004).
Activity calls are given as the source filed them.

How the values were obtained:
[1] = HGIII-sPLA2 enzyme inhibition potency – biochemical, QFRET, IC50, dose response (AID 743457);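 further: green fluorescence rise as the enzyme cleaves BODIPY PC-A2 in liposomes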
[2] = target: T1, Trace amine-associated receptor 1 (Homo sapiens, UniProt Q96RJ0); experiment: Counterscreen for agonists of the human trace amine associated receptor 1 (hTAAR1): Fluorescence-based cell-based high throughput dose response assay to identify hTAAR1 agonist that also desensitize TAAR1 receptor response.; type: functional
T1 sequence (Q96RJ0 whole entry): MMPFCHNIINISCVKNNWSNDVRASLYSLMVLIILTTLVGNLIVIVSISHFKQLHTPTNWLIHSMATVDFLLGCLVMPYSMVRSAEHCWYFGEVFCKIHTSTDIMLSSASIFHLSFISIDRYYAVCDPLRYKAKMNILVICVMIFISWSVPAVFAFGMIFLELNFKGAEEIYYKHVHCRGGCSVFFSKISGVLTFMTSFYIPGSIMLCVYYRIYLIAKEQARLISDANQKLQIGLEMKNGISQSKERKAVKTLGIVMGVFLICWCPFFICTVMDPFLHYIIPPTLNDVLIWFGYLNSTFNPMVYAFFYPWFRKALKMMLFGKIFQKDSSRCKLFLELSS

[3] = NIH3T3 cell viability loss – ATP luminescence, mouse fibroblasts, counter-screen, dose response (AID 2010); type: functional, cell-based;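 further: cells exposed to compound for about 90 hours before reading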
[4] = target: T1, Trace amine-associated receptor 1; experiment: Fluorescence-based cell-based high throughput dose response assay to identify agonists of the human trace amine associated receptor 1 (TAAR1).; type: functional
[5] = Trypanosoma cruzi growth suppression in host cells – NIH3T3 host cells, beta-gal luminescence, confirmation (AID 2044); type: functional, cell-based;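 further: intracellular parasites grown in NIH/3T3 mouse fibroblasts as host cells; luminescent beta-galactosidase reporter signal from transgenic T. cruzi replicating inside host cells; inhibitors lower the luminescence signal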
cells [6] = type: functional, cell-based
cells [7] = type: functional, cell-based; remark: listed apart in the source
Albumin = Albumin (Bos taurus, UniProt P02769); experiment: Counterscreen for inhibitors of T-cell receptor (TCR)-CD3 interaction: Fluorescence-based biochemical high throughput dose response assay to identify inhibitors of T-cell receptor (TCR)-CD3 interaction using a TAMRA-labeled BSA probe.; type: functional
Aminopeptidase N = target: T2, Aminopeptidase N (Plasmodium falciparum FcB1/Columbia, UniProt O96935); experiment: malaria alanyl aminopeptidase activity blockers – biochemical, fluorogenic H-Leu-NHMec substrate, 1536-well (AID 1445); set-up: species or system Plasmodium falciparum 3D7, 3D7
T2 sequence (O96935 whole entry): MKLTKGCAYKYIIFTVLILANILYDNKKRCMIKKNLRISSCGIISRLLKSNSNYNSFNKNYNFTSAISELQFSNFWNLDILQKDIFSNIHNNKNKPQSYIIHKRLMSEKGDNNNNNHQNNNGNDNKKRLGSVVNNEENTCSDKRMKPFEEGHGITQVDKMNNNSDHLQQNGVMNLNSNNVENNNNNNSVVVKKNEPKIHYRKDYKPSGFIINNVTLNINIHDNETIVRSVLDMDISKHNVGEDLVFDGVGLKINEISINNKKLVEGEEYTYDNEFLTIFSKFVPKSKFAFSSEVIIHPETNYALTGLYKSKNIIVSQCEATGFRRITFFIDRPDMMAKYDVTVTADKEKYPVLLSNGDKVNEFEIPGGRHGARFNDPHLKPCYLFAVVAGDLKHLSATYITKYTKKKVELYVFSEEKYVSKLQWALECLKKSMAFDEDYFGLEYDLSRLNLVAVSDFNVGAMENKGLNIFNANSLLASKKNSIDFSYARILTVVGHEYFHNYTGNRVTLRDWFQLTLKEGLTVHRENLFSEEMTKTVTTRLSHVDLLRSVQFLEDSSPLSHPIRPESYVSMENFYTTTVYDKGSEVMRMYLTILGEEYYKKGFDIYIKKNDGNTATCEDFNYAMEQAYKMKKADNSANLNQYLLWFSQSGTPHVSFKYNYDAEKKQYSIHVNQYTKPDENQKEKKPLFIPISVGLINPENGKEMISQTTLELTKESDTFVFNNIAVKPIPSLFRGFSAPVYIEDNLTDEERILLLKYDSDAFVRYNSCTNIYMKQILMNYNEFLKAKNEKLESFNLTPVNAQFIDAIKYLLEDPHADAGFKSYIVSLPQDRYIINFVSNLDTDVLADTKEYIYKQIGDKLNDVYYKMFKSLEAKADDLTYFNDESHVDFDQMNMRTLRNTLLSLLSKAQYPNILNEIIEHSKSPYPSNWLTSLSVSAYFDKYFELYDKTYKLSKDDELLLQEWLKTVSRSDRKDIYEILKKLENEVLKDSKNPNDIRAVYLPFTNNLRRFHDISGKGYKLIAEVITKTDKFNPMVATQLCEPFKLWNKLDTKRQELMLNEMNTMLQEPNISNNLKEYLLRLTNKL

[8] = target: T3, Mannose-6-phosphate isomerase (Homo sapiens, UniProt P34949); experiment: MPI inhibition at elevated mannose 6-phosphate – biochemical, fluorescence intensity, high mannose 6-phosphate, primary screen (AID 1220)
T3 sequence (P34949 whole entry): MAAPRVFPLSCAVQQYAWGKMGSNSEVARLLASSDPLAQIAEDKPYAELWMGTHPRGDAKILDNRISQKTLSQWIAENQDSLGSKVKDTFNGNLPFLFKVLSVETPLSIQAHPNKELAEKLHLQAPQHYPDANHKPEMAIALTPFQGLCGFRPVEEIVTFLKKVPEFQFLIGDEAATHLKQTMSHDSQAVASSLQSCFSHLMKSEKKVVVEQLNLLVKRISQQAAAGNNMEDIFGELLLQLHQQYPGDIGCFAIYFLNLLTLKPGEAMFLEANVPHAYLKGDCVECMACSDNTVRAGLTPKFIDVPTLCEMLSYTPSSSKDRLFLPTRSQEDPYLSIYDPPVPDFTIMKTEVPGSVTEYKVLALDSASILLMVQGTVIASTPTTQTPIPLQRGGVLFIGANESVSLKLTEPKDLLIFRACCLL

cells [9] = type: functional
[10] = target: T4, Rac GTPase-activating protein 1 (Homo sapiens, UniProt Q9H0H5); experiment: blockers of MgcRacGAP-driven Rac1 GTP hydrolysis – biochemical, ADP Hunter fluorescence, primary and confirmatory, confirmation (AID 624330); type: functional
T4 sequence (Q9H0H5 whole entry): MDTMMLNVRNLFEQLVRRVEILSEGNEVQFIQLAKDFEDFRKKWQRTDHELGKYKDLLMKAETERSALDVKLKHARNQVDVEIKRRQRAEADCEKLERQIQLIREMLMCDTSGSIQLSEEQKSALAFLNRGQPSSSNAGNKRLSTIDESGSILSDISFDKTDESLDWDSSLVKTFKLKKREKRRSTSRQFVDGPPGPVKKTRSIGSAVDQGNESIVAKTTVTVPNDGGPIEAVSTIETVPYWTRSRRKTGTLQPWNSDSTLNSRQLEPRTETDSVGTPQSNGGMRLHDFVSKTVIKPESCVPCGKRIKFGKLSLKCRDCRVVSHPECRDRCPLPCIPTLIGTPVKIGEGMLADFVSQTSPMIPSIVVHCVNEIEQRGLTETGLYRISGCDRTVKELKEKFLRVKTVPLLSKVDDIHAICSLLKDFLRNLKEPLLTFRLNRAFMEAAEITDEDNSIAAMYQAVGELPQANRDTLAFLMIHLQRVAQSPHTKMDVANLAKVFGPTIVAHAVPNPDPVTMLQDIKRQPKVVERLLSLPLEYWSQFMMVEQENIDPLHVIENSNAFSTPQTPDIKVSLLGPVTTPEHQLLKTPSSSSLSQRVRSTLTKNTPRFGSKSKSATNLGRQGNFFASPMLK

[11] = viability loss in HeLa cells – cytotoxicity control for MgcRacGAP inhibitor project, dose response (AID 624300); type: functional
[12] = test system: Streptococcus sp. 'group A'; experiment: Streptococcus pyogenes SK(-)GAS viability under kanamycin – luminescence, BacTiterGlo, confirmation, counter-screen for streptokinase expression inhibitor project, dose response (AID 1900); type: functional, organism-based
Streptococcus = experiment: GAS UMAA2166 growth inhibition – luminescence, BacTiterGlo, counter-screen for streptokinase expression inhibitor project, dose response (AID 1915); type: functional, organism-based;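 further: potency for reduction of bacterial viability or growth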

Sequence of Albumin (P02769 whole entry): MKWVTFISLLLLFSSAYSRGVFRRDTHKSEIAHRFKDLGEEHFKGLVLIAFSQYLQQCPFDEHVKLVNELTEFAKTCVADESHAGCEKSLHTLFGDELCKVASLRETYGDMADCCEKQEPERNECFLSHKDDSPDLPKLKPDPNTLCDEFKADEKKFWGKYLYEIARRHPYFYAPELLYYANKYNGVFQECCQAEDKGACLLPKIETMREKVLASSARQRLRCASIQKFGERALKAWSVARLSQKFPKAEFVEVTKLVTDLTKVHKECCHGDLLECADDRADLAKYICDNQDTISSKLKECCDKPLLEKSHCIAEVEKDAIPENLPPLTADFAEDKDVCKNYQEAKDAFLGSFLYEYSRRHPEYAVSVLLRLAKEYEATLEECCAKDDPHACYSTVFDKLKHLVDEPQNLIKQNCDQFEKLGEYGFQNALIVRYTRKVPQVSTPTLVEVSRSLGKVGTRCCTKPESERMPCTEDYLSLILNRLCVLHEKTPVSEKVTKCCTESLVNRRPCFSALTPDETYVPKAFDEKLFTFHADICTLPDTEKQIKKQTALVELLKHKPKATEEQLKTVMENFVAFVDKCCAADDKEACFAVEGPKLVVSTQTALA

Question: For `C=CCNC(S)=NNc1nc(O)c2c(n1)-c1ccccc1CC21CCCCC1`, which IC50 [1] is on record?
Answer: 73.1 µM (inactive)

Question: Which IC50 [2] does the source give for `Cc1c(Cl)cccc1Nc1nc(NCCO)c2ccccc2n1` here?
Answer: 6.83 µM (active)

Question: What about the EC50 [3] of the same molecule?
Answer: > 60 µM (not active)

Question: What about the EC50 [4] of the same molecule?
Answer: 2.94 µM (active)

Question: What about the EC50 [5] of the same molecule?
Answer: 1.2 µM (active)

Question: And the IC50 (cells [6])?
Answer: > 29.9 µM (inactive)

Question: And the EC50 (cells [7])?
Answer: > 29.9 µM (inactive)

Question: With `O=C(CCNC(=O)c1ccc(Br)cc1)NNC(=O)c1ccccc1O` as the molecule, how does the IC50 (Albumin) read?
Answer: > 94.1 µM (inactive)

Question: For `CC(C)c1cc(C(=O)NN=C(S)NCc2ccco2)c(O)c(C(C)C)c1`, which IC50 [1] is on record?
Answer: 18.8 µM (inactive)

Question: Which results are given for `O=c1nc(N2CCCCC2)nc(Nc2ccccc2)[nH]1`?
Answer: IC50 [2]: 4.65 µM (active); EC50 [4]: 3.44 µM (active); IC50 (Aminopeptidase N): 51.9 µM (active)

Question: Which IC50 (Albumin) does the source give for `COc1ccc(NC(=O)NNC(=O)c2ccc3ccccc3c2O)cc1OC` here?
Answer: > 94.1 µM (inactive)

Question: And the IC50 [1]?
Answer: > 122 µM (inactive)

Question: Which IC50 [2] does the source give for `Cc1ccc(N2CN(CCc3ccccc3)CN=C2S)cc1` here?
Answer: 7.74 µM (active)

Question: What about the EC50 [4] of the same molecule?
Answer: 1.16 µM (active)

Question: What about the IC50 (cells [6]) of the same molecule?
Answer: > 29.9 µM (inactive)

Question: And the EC50 (cells [7])?
Answer: > 29.9 µM (inactive)

Question: What does the source list for `CC1CCCN(CCC(=O)c2ccc(Br)cc2)C1` (centres undefined)?
Answer: IC50 [2]: 20.1 µM (inactive); IC50 [8]: > 50 µM (not active); EC50 [4]: 1.67 µM (active); IC50 (cells [9]): 15.2 µM (active); IC50 (cells [6]): > 29.9 µM (inactive); EC50 (cells [7]): > 29.9 µM (inactive)

Question: What does the source list for `CN(CCc1ccccc1)Cc1c[nH]c2ccccc12`?
Answer: IC50 [2]: 13.2 µM (inactive); EC50 [4]: 1.05 µM (active); IC50 (cells [6]): > 29.9 µM (inactive); EC50 (cells [7]): > 29.9 µM (inactive)

Question: With `O=C(Cc1nnc(NC(=O)Nc2ccccc2)s1)Nc1ccccc1` as the molecule, how does the IC50 [2] read?
Answer: > 1.11 µM (active)

Question: What about the EC50 [4] of the same molecule?
Answer: > 0.0015 µM (active)

Question: What about the IC50 (cells [6]) of the same molecule?
Answer: > 29.9 µM (inactive)

Question: What about the EC50 (cells [7]) of the same molecule?
Answer: > 29.9 µM (inactive)

Question: Which IC50 [10] does the source give for `CN(C)c1ccc(Sc2ccc3nc(N)nc(N)c3c2)cc1` here?
Answer: 50.2 µM (active)

Question: And the CC50 [11]?
Answer: 100 µM (active)

Question: Which IC50 [1] does the source give for `Cn1ccc2c(N3CCCCCCC3)cc3c(c21)C1CCC3O1` (centres undefined) here?
Answer: > 122 µM (inactive)

Question: For `COc1ccc(-c2cc(C3CCN(CC(O)C(F)(F)F)CC3)[nH]n2)cc1` (centres undefined), which IC50 [2] is on record?
Answer: 7.6 µM (active)

Question: What about the EC50 [4] of the same molecule?
Answer: 3.52 µM (active)

Question: And the IC50 (cells [6])?
Answer: > 29.9 µM (inactive)

Question: And the EC50 (cells [7])?
Answer: > 29.9 µM (inactive)

Question: For `CCCCNC(=S)N/N=C/c1cccc(OCC)c1O`, which IC50 [1] is on record?
Answer: > 122 µM (inactive)

Question: Which results are given for `O=C(CP(=O)(c1ccccc1)c1ccccc1)N/N=C/c1cc(Br)cc(Br)c1O`?
Answer: IC50 (Albumin): > 94.2 µM (inactive); EC50 [12]: 0.8 µM (active); IC50 (Aminopeptidase N): 12.4 µM (active); EC50 (Streptococcus): 2.32 µM (active)
